Reference: patent US20230189821A1, “PESTICIDAL COMPOSITIONS WITH ENHANCED PHYSICAL CHARACTERISTICS” (Terramera, Inc., priority 2020, published 2023)

assay: Melting point of oil/aliphatic acid mixtures by differential scanning calorimeter (DSC); type: physicochemical
Protocol: Eleven exemplary pesticidal compositions, each comprising a different mixture ratio of neem oil and octanoic acid, were prepared according to the following description. Each composition comprised a combined 10-20 mg of cold-pressed neem oil and octanoic acid. The neem oil and octanoic acid were passively mixed by commingling in liquid phase in the testing vessel (an aluminum pan with an aluminum cap) at a temperature above each ingredient's melting point. Mixture ratios were determined by weight—e.g. a 10 mg mixture in 60:40 ratio would comprise 6 mg of neem oil and 4 mg of octanoic acid. The mixture's melting point was then measured by a differential scanning calorimeter (DSC), and particularly by a TA Instruments® DSC Q2000™ differential scanning calorimeter. The following method was used for DSC measurement of each mixture: the mixture was equilibrated at 40° C., then isothermally held for 15 minutes, then equilibrated at −30° C., and then ramped at 5° C./minute to 70° C. […]
(§1) Eleven exemplary pesticidal compositions, each comprising a different mixture ratio of palm oil and octanoic acid, were prepared according to the following description. […] Mixture ratios were determined by weight—e.g. a 10 mg mixture in 60:40 ratio would comprise 6 mg of palm oil and 4 mg of octanoic acid. The mixture's melting point was then measured by differential scanning calorimeter. […]
as §1, with “coconut” for “palm”
as §1, with “karanja” for “palm”, “acid.” for “acid. The mixture's melting point was then measured by differential scanning calorimeter.”

Row | Melting Point | SMILES
1 | about 11.36 °C | CCCCCCCCCC(=O)O [decanoic acid]
2 | about 11.31 °C | CCCCCCCC/C=C\CCCCCCCC(=O)O [oleic acid]
3 | about 11.36 °C | CC/C=C/CC(=O)O [trans-3 hexenoic acid]
